Experimental findings from patent US5710149A, “Piperazine derivatives as 5-ht antagonists” (John Wyeth & Brother, Ltd., priority 1991, dated 1998) are described below.

As usually defined, the IC50 is the point on the concentration scale where inhibition reaches its midpoint.

The target of test [1] is T1, 5-HT1A receptor (Rattus norvegicus, UniProt P19327).
T1 construct: rat hippocampal membrane homogenated; from tissue; host or cells: rat hippocampus, membrane homogenate
T1 sequence (P19327 1-422): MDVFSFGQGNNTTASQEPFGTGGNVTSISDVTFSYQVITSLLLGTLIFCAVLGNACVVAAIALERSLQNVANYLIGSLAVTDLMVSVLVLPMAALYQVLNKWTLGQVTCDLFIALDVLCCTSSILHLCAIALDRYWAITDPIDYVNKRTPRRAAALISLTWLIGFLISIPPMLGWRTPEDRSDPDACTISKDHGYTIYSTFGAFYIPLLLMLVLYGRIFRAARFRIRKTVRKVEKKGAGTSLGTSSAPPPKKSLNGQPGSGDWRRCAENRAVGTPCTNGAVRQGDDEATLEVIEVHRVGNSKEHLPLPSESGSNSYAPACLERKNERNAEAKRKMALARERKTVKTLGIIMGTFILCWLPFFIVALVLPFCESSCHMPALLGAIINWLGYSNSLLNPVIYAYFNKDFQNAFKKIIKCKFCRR
Briefly: 5-HT1A receptor binding activity in rat hippocampal membrane homogenate. On the procedure:
The compounds of the invention are tested for 5-HT1A receptor binding activity in rat hippocampal membrane homogenated by the method of B. S. Alexander and M. D. Wood, J Pharm Pharmacol, 1988, 40, 888-891.

Test [2] concerns the target T2, 5-HT1A receptor (Cavia porcellus, UniProt A0A286Y074).
T2 construct: guinea-pig ileum in vitro; from tissue; host or cells: guinea-pig ileum, isolated tissue
T2 sequence (A0A286Y074 1-421): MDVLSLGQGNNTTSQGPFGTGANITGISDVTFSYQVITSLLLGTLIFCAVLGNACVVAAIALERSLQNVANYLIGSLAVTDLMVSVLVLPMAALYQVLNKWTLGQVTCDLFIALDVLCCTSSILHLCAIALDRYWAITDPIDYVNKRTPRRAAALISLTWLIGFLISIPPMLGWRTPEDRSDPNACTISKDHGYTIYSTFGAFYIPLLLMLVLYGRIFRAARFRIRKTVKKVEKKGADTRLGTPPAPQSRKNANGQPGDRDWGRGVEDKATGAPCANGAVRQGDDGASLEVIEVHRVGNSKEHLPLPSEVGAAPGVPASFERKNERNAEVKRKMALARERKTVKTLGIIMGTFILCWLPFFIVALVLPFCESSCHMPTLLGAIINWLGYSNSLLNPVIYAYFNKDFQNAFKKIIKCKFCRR
The test is described as follows: 5-HT1A receptor antagonism: antagonism of 5-carboxamido-tryptamine in the guinea-pig ileum in vitro. Particulars: read-out: pA2, antagonism of 5-carboxamido-tryptamine (converted). The method, then: The compounds are tested for 5-HT1A receptor antagonism activity in a test involving the antagonism of 5-carboxamido-tryptamine in the guinea-pig ileum in vitro (based upon the procedure of Fozard et al, Br. J. Pharmac., 1985, 86, 601P).

On 5-HT1A receptor [1], `O=C(C(CCN1CCN(c2cccc3c2OCCO3)CC1)c1ccccc1)N1CCCCCC1` (centres unmarked) [Example 8, 2,3,4,5,6,7-Hexahydro-1-{4-[1-[4-(2,3-dihydro-1,4-benzodioxin-5-yl)piperazinyl]]-2-phenylbutyryl}-1H-azepine] returned an IC50 of 0.6 nM. In addition, the Kb on 5-HT1A receptor [2] is 0.398 nM.
